According to publication PMC11971462, “Generation and validation of a novel multitarget small molecule in glioblastoma” (Cell Death & Disease, 2025):

Test system: GNS166 cells
Test: Label-free proteomics differential expression
Format: cell-based, human
Procedure: Proteomic studies were performed by the Proteomics Facility of the CIC bioGUNE by label-free relative quantification on nLC MS/MS. […] In both approaches, the top 20 enriched terms were plotted and the pathways were clustered using divisive hierarchical clustering based on pairwise Jaccard distances.

C#CCN(Cc1cc2cc(OCCCN3CCCCC3)ccc2n1S(=O)(=O)c1ccccc1)C(=O)CCCCCCC(=O)NO [DDI]
LogFC SC61G_HUMAN (protein P60059): -0.7245 | Direction S61A1_HUMAN (protein P61619): Down | LogFC S61A1_HUMAN (protein P61619): -0.5192 | LogFC NPC2_HUMAN (protein P61916 GN=NPC2): 2.258 | Direction RS7_HUMAN (protein P62081): Down | LogFC RS7_HUMAN (protein P62081): -0.4241 | Direction PRS4_HUMAN (protein P62191): Down | LogFC PRS4_HUMAN (protein P62191): -0.4147 | LogFC RS8_HUMAN (protein P62241 GN=RPS8): -0.4178 | LogFC VISL1_HUMAN (protein P62760 GN=VSNL1): 1.015 | LogFC RS15_HUMAN (protein P62841 GN=RPS15): -0.6326 | LogFC GNAI1_HUMAN (protein P63096 GN=GNAI1): 2.584 | Direction DYL1_HUMAN (protein P63167): Down | LogFC DYL1_HUMAN (protein P63167): -0.5083 | LogFC YBOX1_HUMAN (protein P67809 GN=YBX1): -0.6246 | Direction EF1A1_HUMAN (protein P68104): Down | LogFC EF1A1_HUMAN (protein P68104): -0.2726 | Direction H31_HUMAN (protein P68431): Down | LogFC H31_HUMAN (protein P68431): -4.298 | Direction IF4G2_HUMAN (protein P78344): Down | LogFC IF4G2_HUMAN (protein P78344): -0.799 | Direction GTF2I_HUMAN (protein P78347): Down | LogFC GTF2I_HUMAN (protein P78347): -2.48 | LogFC JAG1_HUMAN (protein P78504 GN=JAG1): 1.553 | LogFC GABT_HUMAN (protein P80404 GN=ABAT): 1.722 | LogFC HMGN5_HUMAN (protein P82970 GN=HMGN5): 1.669 | LogFC NEXN_HUMAN (protein Q0ZGT2 GN=NEXN): 1.075 | Direction ERC6L_HUMAN (protein Q2NKX8): Down | LogFC ERC6L_HUMAN (protein Q2NKX8): -1.52 | Direction TSR1_HUMAN (protein Q2NL82): Down | LogFC TSR1_HUMAN (protein Q2NL82): -0.7691 | Direction QRIC1_HUMAN (protein Q2TAL8): Down | LogFC QRIC1_HUMAN (protein Q2TAL8): -0.7876 | Direction RABL6_HUMAN (protein Q3YEC7): Down | LogFC RABL6_HUMAN (protein Q3YEC7): -0.9067 | LogFC CCD58_HUMAN (protein Q4VC31 GN=CCDC58): 2.085 | LogFC TM41B_HUMAN (protein Q5BJD5 GN=TMEM41B): 1.572 | Direction MEST_HUMAN (protein Q5EB52): Down | LogFC MEST_HUMAN (protein Q5EB52): -1.179 | LogFC EMC4_HUMAN (protein Q5J8M3 GN=EMC4): 0.9113 | LogFC HABP4_HUMAN (protein Q5JVS0 GN=HABP4): 1.16 | Direction S27A3_HUMAN (protein Q5K4L6): Down | LogFC S27A3_HUMAN (protein Q5K4L6): -1.576 | Direction CAF17_HUMAN (protein Q5T440): Down | LogFC CAF17_HUMAN (protein Q5T440): -1.623 | LogFC FRY_HUMAN (protein Q5TBA9 GN=FRY): 0.4095 | Direction CDKAL_HUMAN (protein Q5VV42): Down | LogFC CDKAL_HUMAN (protein Q5VV42): -0.9728 | LogFC LYPL1_HUMAN (protein Q5VWZ2 GN=LYPLAL1): 2.901 | Direction ECM29_HUMAN (protein Q5VYK3): Down | LogFC ECM29_HUMAN (protein Q5VYK3): -1.336 | Direction P4R3A_HUMAN (protein Q6IN85): Down | LogFC P4R3A_HUMAN (protein Q6IN85): -0.9894 | Direction NEPRO_HUMAN (protein Q6NW34): Down | LogFC NEPRO_HUMAN (protein Q6NW34): -2.0501 | Direction CAVN1_HUMAN (protein Q6NZI2): Down | LogFC CAVN1_HUMAN (protein Q6NZI2): -0.9705 | Direction PRP8_HUMAN (protein Q6P2Q9): Down | LogFC PRP8_HUMAN (protein Q6P2Q9): -0.5767 | LogFC PDXD1_HUMAN (protein Q6P996 GN=PDXDC1): -1.201 | LogFC MDEAS_HUMAN (protein Q6PJG2 GN=MIDEAS): -1.368 | LogFC TMED8_HUMAN (protein Q6PL24 GN=TMED8): 1.071 | LogFC F111B_HUMAN (protein Q6SJ93 GN=FAM111B): 1.175 | Direction MCAF1_HUMAN (protein Q6VMQ6): Down | LogFC MCAF1_HUMAN (protein Q6VMQ6): -0.5577 | Direction DNMBP_HUMAN (protein Q6XZF7): Down | LogFC DNMBP_HUMAN (protein Q6XZF7): -1.235 | LogFC HSDL2_HUMAN (protein Q6YN16 GN=HSDL2): 0.7277 | Direction NFXL1_HUMAN (protein Q6ZNB6): Down | LogFC NFXL1_HUMAN (protein Q6ZNB6): -0.9938 | Direction QSOX2_HUMAN (protein Q6ZRP7): Down | LogFC QSOX2_HUMAN (protein Q6ZRP7): -1.536 | LogFC SRCAP_HUMAN (protein Q6ZRS2 GN=SRCAP): -1.996 | Direction CCD9B_HUMAN (protein Q6ZUT6): Down | LogFC CCD9B_HUMAN (protein Q6ZUT6): -1.697 | LogFC SND1_HUMAN (protein Q7KZF4 GN=SND1): 0.6224 | LogFC SV2A_HUMAN (protein Q7L0J3 GN=SV2A): 0.9586 | Direction CYFP1_HUMAN (protein Q7L576): Down | LogFC CYFP1_HUMAN (protein Q7L576): -0.7029 | Direction POGZ_HUMAN (protein Q7Z3K3): Down | LogFC POGZ_HUMAN (protein Q7Z3K3): -1.413 | LogFC MON2_HUMAN (protein Q7Z3U7 GN=MON2): -0.4314 | Direction KI21A_HUMAN (protein Q7Z4S6): Down | LogFC KI21A_HUMAN (protein Q7Z4S6): -1.343 | Direction CAMP2_HUMAN (protein Q08AD1): Down | LogFC CAMP2_HUMAN (protein Q08AD1): -0.4479 | LogFC H2A2B_HUMAN (protein Q8IUE6 GN=H2AC21): -0.9956 | LogFC RIOX2_HUMAN (protein Q8IUF8 GN=RIOX2): -1.969 | LogFC ARMC8_HUMAN (protein Q8IUR7 GN=ARMC8): -2.228 | Direction CEP97_HUMAN (protein Q8IW35): Down | LogFC CEP97_HUMAN (protein Q8IW35): -0.4382 | LogFC LRC8A_HUMAN (protein Q8IWT6 GN=LRRC8A): -0.7869 | Direction CCAR1_HUMAN (protein Q8IX12): Down | LogFC CCAR1_HUMAN (protein Q8IX12): -0.6634 | Direction RAVR1_HUMAN (protein Q8IY67): Down | LogFC RAVR1_HUMAN (protein Q8IY67): -2.239 | LogFC SMAP1_HUMAN (protein Q8IYB5 GN=SMAP1): -0.6906 | Direction TRI22_HUMAN (protein Q8IYM9): Down | LogFC TRI22_HUMAN (protein Q8IYM9): -2.3161 | LogFC LRC47_HUMAN (protein Q8N1G4 GN=LRRC47): -0.5175 | LogFC PIAS4_HUMAN (protein Q8N2W9 GN=PIAS4): 0.8535 | Direction ASCC3_HUMAN (protein Q8N3C0): Down | LogFC ASCC3_HUMAN (protein Q8N3C0): -0.4031 | Direction MILK1_HUMAN (protein Q8N3F8): Down | LogFC MILK1_HUMAN (protein Q8N3F8): -1.876 | LogFC DHRSX_HUMAN (protein Q8N5I4 GN=DHRSX): -1.799 | LogFC ARFG2_HUMAN (protein Q8N6H7 GN=ARFGAP2): -2.652 | LogFC FITM2_HUMAN (protein Q8N6M3 GN=FITM2): 1.422 | Direction INT1_HUMAN (protein Q8N201): Down | LogFC INT1_HUMAN (protein Q8N201): -1.252 | Direction CPSF7_HUMAN (protein Q8N684): Down | LogFC CPSF7_HUMAN (protein Q8N684): -0.7682 | Direction CGAS_HUMAN (protein Q8N884): Down | LogFC CGAS_HUMAN (protein Q8N884): -1.895 | LogFC PR38A_HUMAN (protein Q8NAV1 GN=PRPF38A): 1.096
